Organism: Rattus norvegicus
Assay: Open TG-GATES - Regimen: Daily Repeat
Assay type: toxicity, organism-based, Sprague-Dawley
Design: regimen Daily Repeat, gender Male, age 6 weeks
Conditions: in vivo, po, 100 mg/kg, route gavage, dose level Middle; for APTT / Bas / Eos / Fbg / Hb / Ht / Lym / MCH / MCHC / MCV / Mono / Neu / PT / Plat / RBC / Ret / WBC: tissue Blood; for KIDNEY_L / KIDNEY_R / KIDNEY_TOTAL: tissue Kidney; for LIVER: tissue Liver; for A/G / ALP / ALT / AST / BUN / CRE / Ca / Cl / DBIL / GLC / IP / K / LDH / Na / PL / RALB / TBIL / TC / TG / TP / gamma-GTP: tissue Plasma

SMILES: CCCNC(=O)NS(=O)(=O)c1ccc(Cl)cc1 [CHLORPROPAMIDE]
- TERMINAL_BW (72 h, time 3 day): 208.2 g
- APTT (72 h, time 3 day): 17.5 s
- Bas (72 h, time 3 day): 0%
- Eos (72 h, time 3 day): 1%
- Fbg (72 h, time 3 day): 275.8 mg/dL
- Hb (72 h, time 3 day): 13 g/dL
- Ht (72 h, time 3 day): 40.2%
- Lym (72 h, time 3 day): 77.2%
- MCH (72 h, time 3 day): 20.8 pg
- MCHC (72 h, time 3 day): 32.5%
- MCV (72 h, time 3 day): 64.1 fL
- Mono (72 h, time 3 day): 2.6%
- Neu (72 h, time 3 day): 18.2%
- PT (72 h, time 3 day): 16.2 s
- Plat (72 h, time 3 day): 111.5 x10_4/uL
- RBC (72 h, time 3 day): 626.8 x10_4/ul
- Ret (72 h, time 3 day): 6.2%
- WBC (72 h, time 3 day): 65.6 x10_2/uL
- KIDNEY_L (72 h, time 3 day): 0.9 g
- KIDNEY_R (72 h, time 3 day): 0.9 g
- KIDNEY_TOTAL (72 h, time 3 day): 1.8 g
- LIVER (72 h, time 3 day): 9.3 g
- A/G (72 h, time 3 day): 0.8
- ALP (72 h, time 3 day): 1720.4 IU/L
- ALT (72 h, time 3 day): 49.2 IU/L
- AST (72 h, time 3 day): 71.2 IU/L
- BUN (72 h, time 3 day): 17 mg/dL
- CRE (72 h, time 3 day): 0.2 mg/dL
- Ca (72 h, time 3 day): 10.6 mg/dL
- Cl (72 h, time 3 day): 106.6 meq/L
- DBIL (72 h, time 3 day): 0.008 mg/dL
- GLC (72 h, time 3 day): 174.6 mg/dL
- IP (72 h, time 3 day): 7.7 mg/dL
- K (72 h, time 3 day): 3.7 meq/L
- LDH (72 h, time 3 day): 65.6 IU/L
- Na (72 h, time 3 day): 142.6 meq/L
- PL (72 h, time 3 day): 154.6 mg/dL
- RALB (72 h, time 3 day): 2.6 g/dL
- TBIL (72 h, time 3 day): 0.022 mg/dL
- TC (72 h, time 3 day): 85.4 mg/dL
- TG (72 h, time 3 day): 76.6 mg/dL
- TP (72 h, time 3 day): 5.7 g/dL
- gamma-GTP (72 h, time 3 day): 1 IU/L
- TERMINAL_BW ([…], time 7 day): 237.9 g
- TERMINAL_BW ([…], time 14 day): 287.5 g
- TERMINAL_BW ([…], time 28 day): 344.3 g
- APTT ([…], time 7 day): 17.8 s
- Bas ([…], time 7 day): 0%
- Eos ([…], time 7 day): 1%
- Fbg ([…], time 7 day): 277.2 mg/dL
- Hb ([…], time 7 day): 13.2 g/dL
- Ht ([…], time 7 day): 39.7%
- Lym ([…], time 7 day): 77.8%
- MCH ([…], time 7 day): 20.7 pg
- MCHC ([…], time 7 day): 33.2%
- MCV ([…], time 7 day): 62.3 fL
- Mono ([…], time 7 day): 2.8%
- Neu ([…], time 7 day): 17.2%
- PT ([…], time 7 day): 16 s
- Plat ([…], time 7 day): 112.6 x10_4/uL
- RBC ([…], time 7 day): 638 x10_4/ul
- Ret ([…], time 7 day): 6.6%
- WBC ([…], time 7 day): 118.8 x10_2/uL
- APTT ([…], time 14 day): 17.7 s
- Bas ([…], time 14 day): 0.2%
- Eos ([…], time 14 day): 0.8%
- Fbg ([…], time 14 day): 275.8 mg/dL
- Hb ([…], time 14 day): 13.8 g/dL
- Ht ([…], time 14 day): 40.9%
- Lym ([…], time 14 day): 79.4%
- MCH ([…], time 14 day): 20.8 pg
- MCHC ([…], time 14 day): 33.6%
- MCV ([…], time 14 day): 62 fL
- Mono ([…], time 14 day): 2.2%
- Neu ([…], time 14 day): 16.4%
- PT ([…], time 14 day): 16 s
- Plat ([…], time 14 day): 107 x10_4/uL
- RBC ([…], time 14 day): 660.4 x10_4/ul
- Ret ([…], time 14 day): 4.7%
- WBC ([…], time 14 day): 97.8 x10_2/uL
- APTT ([…], time 28 day): 19.5 s
- Bas ([…], time 28 day): 0%
- Eos ([…], time 28 day): 1%
- Fbg ([…], time 28 day): 290.4 mg/dL
- Hb ([…], time 28 day): 14.6 g/dL
- Ht ([…], time 28 day): 43.4%
- Lym ([…], time 28 day): 76.4%
- MCH ([…], time 28 day): 19.4 pg
- MCHC ([…], time 28 day): 33.5%
- MCV ([…], time 28 day): 57.8 fL
- Mono ([…], time 28 day): 2.6%
- Neu ([…], time 28 day): 18.6%
- PT ([…], time 28 day): 16.2 s
- Plat ([…], time 28 day): 107.8 x10_4/uL
- RBC ([…], time 28 day): 751 x10_4/ul
- Ret ([…], time 28 day): 2.5%
- WBC ([…], time 28 day): 90.2 x10_2/uL
- KIDNEY_L ([…], time 7 day): 1 g
- KIDNEY_R ([…], time 7 day): 1 g
- KIDNEY_TOTAL ([…], time 7 day): 2 g
- KIDNEY_L ([…], time 14 day): 1.2 g
- KIDNEY_R ([…], time 14 day): 1.2 g
- KIDNEY_TOTAL ([…], time 14 day): 2.4 g
- KIDNEY_L ([…], time 28 day): 1.2 g
- KIDNEY_R ([…], time 28 day): 1.3 g
- KIDNEY_TOTAL ([…], time 28 day): 2.5 g
- LIVER ([…], time 7 day): 11.4 g
- LIVER ([…], time 14 day): 13.6 g
- LIVER ([…], time 28 day): 14.2 g
- A/G ([…], time 7 day): 0.8
- ALP ([…], time 7 day): 1392.6 IU/L
- ALT ([…], time 7 day): 50 IU/L
- AST ([…], time 7 day): 74.2 IU/L
- BUN ([…], time 7 day): 18.2 mg/dL
- CRE ([…], time 7 day): 0.2 mg/dL
- Ca ([…], time 7 day): 10.8 mg/dL
- Cl ([…], time 7 day): 107 meq/L
- DBIL ([…], time 7 day): 0.01 mg/dL
- GLC ([…], time 7 day): 194.2 mg/dL
- IP ([…], time 7 day): 7.4 mg/dL
- K ([…], time 7 day): 3.6 meq/L
- LDH ([…], time 7 day): 81.8 IU/L
- Na ([…], time 7 day): 144.4 meq/L
- PL ([…], time 7 day): 162.2 mg/dL
- RALB ([…], time 7 day): 2.6 g/dL
- TBIL ([…], time 7 day): 0.03 mg/dL
- TC ([…], time 7 day): 85.4 mg/dL
- TG ([…], time 7 day): 105.4 mg/dL
- TP ([…], time 7 day): 5.7 g/dL
- gamma-GTP ([…], time 7 day): 1 IU/L
- A/G ([…], time 14 day): 0.8
- ALP ([…], time 14 day): 1782.8 IU/L
- ALT ([…], time 14 day): 41 IU/L
- AST ([…], time 14 day): 63 IU/L
- BUN ([…], time 14 day): 18.8 mg/dL
- CRE ([…], time 14 day): 0.2 mg/dL
- Ca ([…], time 14 day): 10.6 mg/dL
- Cl ([…], time 14 day): 105.8 meq/L
- DBIL ([…], time 14 day): 0.01 mg/dL
- GLC ([…], time 14 day): 208.4 mg/dL
- IP ([…], time 14 day): 7.7 mg/dL
- K ([…], time 14 day): 3.5 meq/L
- LDH ([…], time 14 day): 99.6 IU/L
- Na ([…], time 14 day): 144.6 meq/L
- PL ([…], time 14 day): 170.2 mg/dL
- RALB ([…], time 14 day): 2.7 g/dL
- TBIL ([…], time 14 day): 0.02 mg/dL
- TC ([…], time 14 day): 77.2 mg/dL
- TG ([…], time 14 day): 175 mg/dL
- TP ([…], time 14 day): 5.9 g/dL
- gamma-GTP ([…], time 14 day): 1 IU/L
- A/G ([…], time 28 day): 0.8
- ALP ([…], time 28 day): 1238 IU/L
- ALT ([…], time 28 day): 40.2 IU/L
- AST ([…], time 28 day): 64 IU/L
- BUN ([…], time 28 day): 16.2 mg/dL
- CRE ([…], time 28 day): 0.2 mg/dL
- Ca ([…], time 28 day): 10.4 mg/dL
- Cl ([…], time 28 day): 107.4 meq/L
- DBIL ([…], time 28 day): 0.008 mg/dL
- GLC ([…], time 28 day): 196.6 mg/dL
- IP ([…], time 28 day): 6.5 mg/dL
- K ([…], time 28 day): 3.2 meq/L
- LDH ([…], time 28 day): 72.6 IU/L
- Na ([…], time 28 day): 144.8 meq/L
- PL ([…], time 28 day): 158.8 mg/dL
- RALB ([…], time 28 day): 2.7 g/dL
- TBIL ([…], time 28 day): 0.016 mg/dL
- TC ([…], time 28 day): 73.4 mg/dL
- TG ([…], time 28 day): 149.6 mg/dL
- TP ([…], time 28 day): 6 g/dL
- gamma-GTP ([…], time 28 day): 1 IU/L

Source: ChEMBL document CHEMBL3885861, “Open TG-GATES”
